Data on 7 compounds can be found in patent US4110327A, “2,3 Diketo-piperazinocarbonylamino alkanoic acids and derivatives” (Toyama Chemical Co., Ltd., priority 1974, dated 1978).

In general, MIC refers to the smallest concentration in the dilution series that meets the test's criterion for growth inhibition. Low readings indicate greater potency, high ones weaker potency.

The structures appear in SMILES notation. Values after ≈ are worked out from the molar mass of the structure shown. A value given as a limit tells only on which side of the number the result lay.

What all share (format): cell-based
The test system of test [1] is Proteus vulgaris 3027. The test is described as follows: MIC against standard strain, plate method. Conditions: Proteus vulgaris 3027, standard strain; unit assumed. How it is done:
(§1) The minimum inhibitory concentrations (MIC) was determined by the plate method disclosed in "Chemotherapy" (Japan), Vol. 16, (1968), pages 98 - 99. The culture medium used was a Heart infusion agar (pH 7.4). The number of the cells per plate used in the inoculum as 10^4 (10^6 cells/ml).

Test [2] concerns Klebsiella pneumoniae. The test is described as follows: MIC against standard strain, plate method. Conditions: unit assumed. How it is done: as §1
For test [3], the system named is Escherichia coli NIHJ. Kind of test: MIC against standard strain, plate method. Conditions: unit assumed. How it is done: as §1
The test system of test [4] is Pseudomonas aeruginosa I.F.O. Kind of test: MIC against standard strain, plate method. Conditions: unit assumed. How it is done:
as §1

For test [5], the system named is Staphylococcus aureus 209p. Kind of test: MIC against standard strain, plate method. Conditions: unit assumed. How it is done: as §1
Test [6] relates to Pseudomonas aeruginosa. The test is described as follows: MIC against clinical isolates. Conditions: unit assumed.
Test [7] has as its system Escherichia coli. Kind of test: MIC against clinical isolates. Conditions: unit assumed.
Test [8] concerns Staphylococcus aureus. Kind of test: MIC against clinical isolates. Conditions: unit assumed.
The test system of test [9] is Klebsiella pneumoniae. Kind of test: MIC against clinical isolates. Conditions: unit assumed.

Consider `CC(=O)OCC1=C(C(=O)O)N2C(=O)[C@@H](NC(=O)Cc3cccs3)[C@H]2SC1` [Sodium Cephalothin, SodiumCephalothin, reference compound], for which the MIC in test [1] is below 1.57 µg/mL; in test [2], 100 µg/mL; in [3], below 1.57 µg/mL; in test [4] it was above 200 µg/mL; in test [5], below 1.57 µg/mL; in [6] (clinical isolate GN 82), above 200 µg/mL. Also, the MIC in [6] (clinical isolate GN 163), in test [6] (clinical isolate GN 221), in [6] (clinical isolate GN 244), in [6] (clinical isolate GN 376), in test [6] (clinical isolate GN 383) and in test [6] (clinical isolate GN 1035) was above 200 µg/mL each time. In addition, the MIC in test [6] (clinical isolate GN 1091), in test [6] (clinical isolate GN 2565), in test [6] (clinical isolate GN 2987), in test [6] (clinical isolate S-1), in test [6] (clinical isolate S-2) and in [6] (clinical isolate S-3) was above 200 µg/mL throughout. Also, the MIC in test [6] (clinical isolate S-4) was above 200 µg/mL; in test [7] (clinical isolate GN 3435), 6.25 µg/mL; in [7] (clinical isolate GN 3452) it was 12.5 µg/mL; in [7] (clinical isolate GN 3465), 25 µg/mL; in test [7] (clinical isolate GN 3481) it was 12.5 µg/mL; in test [7] (clinical isolate GN 3611), 50 µg/mL. The MIC in [7] (clinical isolate K-1) is 6.25 µg/mL; in test [7] (clinical isolate K-2) it was 6.25 µg/mL; in test [7] (clinical isolate K-3), 100 µg/mL; in test [7] (clinical isolate K-4), 25 µg/mL; in [8] (clinical isolate F-1), below 0.4 µg/mL; in test [8] (clinical isolate F-2) it was below 0.4 µg/mL. Further, the MIC is below 0.4 µg/mL in test [8] (clinical isolate F-3); below 0.4 µg/mL in test [8] (clinical isolate F-4); 1.56 µg/mL in test [8] (clinical isolate F-5); below 0.4 µg/mL in [8] (clinical isolate MS 8588); below 0.4 µg/mL in test [8] (clinical isolate MS 8596); below 0.4 µg/mL in [8] (clinical isolate MS 8619). The MIC in test [8] (clinical isolate MS 8684) was below 0.4 µg/mL; in test [8] (clinical isolate MS 8713), below 0.4 µg/mL; in [9] (clinical isolate GN 917), 3.13 µg/mL; in test [9] (clinical isolate GN 4081), 12.5 µg/mL; in [9] (clinical isolate GN 4117), 6.25 µg/mL.
Take `CCN1CCN(C(=O)NC(C(=O)NC2C(=O)N3C(C(=O)O)=C(CSc4nnnn4C)CSC23)c2ccccc2)C(=O)C1=O` (stereo not shown) [compound 69]: the MIC in [1] was below 0.79 µg/mL; in test [2], below 0.4 µg/mL; in test [3], below 0.79 µg/mL; in test [4], 12.5 µg/mL (≈ 19.9 µM); in test [5] it was below 0.79 µg/mL; in [6] (clinical isolate GN 82) it was 12.5 µg/mL (≈ 19.9 µM). The MIC was 12.5 µg/mL (≈ 19.9 µM) in test [6] (clinical isolate GN 163); 6.25 µg/mL (≈ 9.93 µM) in test [6] (clinical isolate GN 221); 25 µg/mL (≈ 39.7 µM) in [6] (clinical isolate GN 244); 12.5 µg/mL (≈ 19.9 µM) in [6] (clinical isolate GN 376); 25 µg/mL (≈ 39.7 µM) in test [6] (clinical isolate GN 383); 50 µg/mL (≈ 79.4 µM) in test [6] (clinical isolate GN 1035). The MIC in [6] (clinical isolate GN 1091) turned out to be 12.5 µg/mL (≈ 19.9 µM); in [6] (clinical isolate GN 2565), 50 µg/mL (≈ 79.4 µM); in test [6] (clinical isolate GN 2987) it was 12.5 µg/mL (≈ 19.9 µM); in test [6] (clinical isolate S-1), 25 µg/mL (≈ 39.7 µM); in test [6] (clinical isolate S-2) it was 25 µg/mL (≈ 39.7 µM); in [6] (clinical isolate S-3), 50 µg/mL (≈ 79.4 µM). The MIC in test [6] (clinical isolate S-4) came to 50 µg/mL (≈ 79.4 µM); in [8] (clinical isolate F-1) it was 3.13 µg/mL (≈ 4.97 µM); in test [8] (clinical isolate F-2), 1.56 µg/mL (≈ 2.48 µM); in test [8] (clinical isolate F-3) it was 0.78 µg/mL (≈ 1.24 µM); in [8] (clinical isolate F-4) it was 3.13 µg/mL (≈ 4.97 µM); in test [8] (clinical isolate F-5), 0.78 µg/mL (≈ 1.24 µM). Moreover, the MIC in [8] (clinical isolate MS 8588) was found to be 1.56 µg/mL (≈ 2.48 µM); in test [8] (clinical isolate MS 8596), 1.56 µg/mL (≈ 2.48 µM); in test [8] (clinical isolate MS 8619), 0.78 µg/mL (≈ 1.24 µM); in [8] (clinical isolate MS 8684), 1.56 µg/mL (≈ 2.48 µM); in test [8] (clinical isolate MS 8713) it was 1.56 µg/mL (≈ 2.48 µM); in test [9] (clinical isolate GN 917) it was 0.78 µg/mL (≈ 1.24 µM).
For `CN1CCN(C(=O)N[C@@H](C(=O)N[C@@H]2C(=O)N3C(C(=O)[O-])=C(C[n+]4ccccc4)CS[C@H]23)c2ccccc2)C(=O)C1=O` [compound 68], the MIC in test [1] was 1.57 µg/mL (≈ 2.71 µM); in test [2] it was below 0.79 µg/mL; in test [3], below 0.79 µg/mL; in test [4], 12.5 µg/mL (≈ 21.6 µM); in test [5], 1.57 µg/mL (≈ 2.71 µM); in test [6] (clinical isolate GN 82), 6.25 µg/mL (≈ 10.8 µM). Further, the MIC in test [6] (clinical isolate GN 163) worked out at 12.5 µg/mL (≈ 21.6 µM); in test [6] (clinical isolate GN 221) it was 3.13 µg/mL (≈ 5.41 µM); in test [6] (clinical isolate GN 244), 25 µg/mL (≈ 43.2 µM); in test [6] (clinical isolate GN 376), 12.5 µg/mL (≈ 21.6 µM); in test [6] (clinical isolate GN 383) it was 12.5 µg/mL (≈ 21.6 µM); in test [6] (clinical isolate GN 1035), 50 µg/mL (≈ 86.4 µM). The MIC stood at 12.5 µg/mL (≈ 21.6 µM) in [6] (clinical isolate GN 1091); 50 µg/mL (≈ 86.4 µM) in test [6] (clinical isolate GN 2565); 12.5 µg/mL (≈ 21.6 µM) in [6] (clinical isolate GN 2987); 25 µg/mL (≈ 43.2 µM) in test [6] (clinical isolate S-1); 25 µg/mL (≈ 43.2 µM) in test [6] (clinical isolate S-2); 25 µg/mL (≈ 43.2 µM) in test [6] (clinical isolate S-3). For the same compound, the MIC in [6] (clinical isolate S-4) stood at 25 µg/mL (≈ 43.2 µM); in [8] (clinical isolate F-1) it was 1.56 µg/mL (≈ 2.7 µM); in test [8] (clinical isolate F-2), 1.56 µg/mL (≈ 2.7 µM); in [8] (clinical isolate F-3), 0.78 µg/mL (≈ 1.35 µM); in test [8] (clinical isolate F-4), 6.25 µg/mL (≈ 10.8 µM); in test [8] (clinical isolate F-5), 0.78 µg/mL (≈ 1.35 µM). Further, the MIC in [8] (clinical isolate MS 8588) is 1.56 µg/mL (≈ 2.7 µM); in [8] (clinical isolate MS 8596), 1.56 µg/mL (≈ 2.7 µM); in test [8] (clinical isolate MS 8619), 0.78 µg/mL (≈ 1.35 µM); in test [8] (clinical isolate MS 8684), 1.56 µg/mL (≈ 2.7 µM); in [8] (clinical isolate MS 8713), 3.13 µg/mL (≈ 5.41 µM); in test [9] (clinical isolate GN 917), 1.56 µg/mL (≈ 2.7 µM).
For `CCN1CCN(C(=O)N[C@@H](C(=O)N[C@@H]2C(=O)N3[C@@H]2SC(C)(C)[C@@H]3C(=O)O)c2ccccc2)CC1=O` [compound 19], the MIC in [1] was 3.13 µg/mL (≈ 6.22 µM); in [2], 50 µg/mL (≈ 99.3 µM); in test [3] it was below 1.57 µg/mL; in [4] it was 12.5 µg/mL (≈ 24.8 µM); in test [5], below 1.57 µg/mL; in test [6] (clinical isolate GN 82), 12.5 µg/mL (≈ 24.8 µM). In addition, the MIC was determined as 12.5 µg/mL (≈ 24.8 µM) in [6] (clinical isolate GN 163); 12.5 µg/mL (≈ 24.8 µM) in test [6] (clinical isolate GN 221); 12.5 µg/mL (≈ 24.8 µM) in test [6] (clinical isolate GN 376); 12.5 µg/mL (≈ 24.8 µM) in test [6] (clinical isolate GN 383); 100 µg/mL (≈ 199 µM) in test [6] (clinical isolate GN 1035); 12.5 µg/mL (≈ 24.8 µM) in test [6] (clinical isolate GN 1091). The MIC in test [6] (clinical isolate GN 2565) was determined as 50 µg/mL (≈ 99.3 µM); in test [6] (clinical isolate GN 2987), 12.5 µg/mL (≈ 24.8 µM); in test [6] (clinical isolate GN (number not given; Table 5-3)), 25 µg/mL (≈ 49.6 µM); in test [6] (clinical isolate S-1), 50 µg/mL (≈ 99.3 µM); in [6] (clinical isolate S-2), 50 µg/mL (≈ 99.3 µM); in test [6] (clinical isolate S-3), 50 µg/mL (≈ 99.3 µM). Further, the MIC in test [6] (clinical isolate S-4) is 50 µg/mL (≈ 99.3 µM); in test [9] (clinical isolate GN 917), 50 µg/mL (≈ 99.3 µM); in [9] (clinical isolate GN 3850), 100 µg/mL (≈ 199 µM); in test [9] (clinical isolate GN 4081) it was above 200 µg/mL; in test [9] (clinical isolate GN 4117), above 200 µg/mL.
As to `CN1CCN(C(=O)NC(C(=O)NC2C(=O)N3C(C(=O)O)=C(CSc4nncn4C)CSC23)c2ccccc2)C(=O)C1=O` (single isomer, unassigned) [compound 65], the MIC turned out to be 3.13 µg/mL (≈ 5.09 µM) in [1]; 3.13 µg/mL (≈ 5.09 µM) in [2]; 0.79 µg/mL (≈ 1.29 µM) in test [3]; 25 µg/mL (≈ 40.7 µM) in test [4]; 3.13 µg/mL (≈ 5.09 µM) in test [5].
Take `CN1CCN(C(=O)NC(C(=O)NC2C(=O)N3C(C(=O)O)=C(CSc4nncs4)CSC23)c2ccccc2)C(=O)C1=O` (single isomer, unassigned) [compound 64]: the MIC in [1] is 3.13 µg/mL (≈ 5.07 µM); in test [2], 1.57 µg/mL (≈ 2.54 µM); in test [3], below 0.1 µg/mL; in [4] it was 25 µg/mL (≈ 40.5 µM); in test [5] it was 0.79 µg/mL (≈ 1.28 µM).
Consider `CCCCN1CCN(C(=O)N[C@@H](C(=O)N[C@@H]2C(=O)N3[C@@H]2SC(C)(C)[C@@H]3C(=O)O)c2ccccc2)CC1=O` [compound 18], for which the minimal inhibitory concentration (MIC) in test [1] is 3.13 µg/mL (≈ 5.89 µM); in [2] it was 25 µg/mL (≈ 47 µM); in test [3], below 1.57 µg/mL; in [4], 12.5 µg/mL (≈ 23.5 µM); in test [5], below 1.57 µg/mL.
